{
  "source": "paper PMC12095788",
  "about": "(Communications Chemistry, 2025)",
  "biological_target": "T1, Nurr1 LBD homodimer (Homo sapiens, UniProt P43354)",
  "T1 construct": "a plasmid construct encoding Nurr1 (aa 364-598) in a pMal vector system; sGFP-Nurr1 LBD protein and sGFP-RXRα LBD[26] were titrated against a fixed concentration of Tb-SA conjugated Nurr1 LBD protein; MBP (cleaved yes); made in house; host or cells: E.coli BL21-R3-pRARE2 (biotinylated Nurr1 LBD)",
  "T1 sequence (P43354 364-598 limits assumed)": "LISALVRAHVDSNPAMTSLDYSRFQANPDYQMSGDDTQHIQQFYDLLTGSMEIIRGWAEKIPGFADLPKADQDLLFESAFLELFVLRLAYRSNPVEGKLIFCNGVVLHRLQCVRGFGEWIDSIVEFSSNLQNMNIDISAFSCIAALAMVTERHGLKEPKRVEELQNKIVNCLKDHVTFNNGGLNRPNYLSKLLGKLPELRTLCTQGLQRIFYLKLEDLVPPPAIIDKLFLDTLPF",
  "assay": "HTRF Nurr1 homodimer formation assay",
  "assay_type": "biochemical",
  "data": [
    {"compound": "O=C(O)C1=C(C(=O)Nc2ccc(-c3ccccc3OCc3ccccc3)cc2F)CCC1", "note": "[compound 1, 2-{[2’-(Benzyloxy)-3-fluoro-[1,1’-biphenyl]-4-yl]carbamoyl}cyclopent-1-ene-1-carboxylic acid]", "values": [
      {"measurement": "effect on Nurr1 homodimerization", "result": "markedly disrupted"}
    ]}
  ]
}
